# Test results reported in patent US8822449B2, “Substituted aminoindanes and analogs thereof, and the pharmaceutical use thereof” (Sanofi, priority 2008, dated 2014).
# Target: T1, sodium-proton exchanger of subtype 3 (NHE3) (Homo sapiens, UniProt P48764)
# T1 construct: expressed in transfected cells
# T1 sequence (P48764 26-834): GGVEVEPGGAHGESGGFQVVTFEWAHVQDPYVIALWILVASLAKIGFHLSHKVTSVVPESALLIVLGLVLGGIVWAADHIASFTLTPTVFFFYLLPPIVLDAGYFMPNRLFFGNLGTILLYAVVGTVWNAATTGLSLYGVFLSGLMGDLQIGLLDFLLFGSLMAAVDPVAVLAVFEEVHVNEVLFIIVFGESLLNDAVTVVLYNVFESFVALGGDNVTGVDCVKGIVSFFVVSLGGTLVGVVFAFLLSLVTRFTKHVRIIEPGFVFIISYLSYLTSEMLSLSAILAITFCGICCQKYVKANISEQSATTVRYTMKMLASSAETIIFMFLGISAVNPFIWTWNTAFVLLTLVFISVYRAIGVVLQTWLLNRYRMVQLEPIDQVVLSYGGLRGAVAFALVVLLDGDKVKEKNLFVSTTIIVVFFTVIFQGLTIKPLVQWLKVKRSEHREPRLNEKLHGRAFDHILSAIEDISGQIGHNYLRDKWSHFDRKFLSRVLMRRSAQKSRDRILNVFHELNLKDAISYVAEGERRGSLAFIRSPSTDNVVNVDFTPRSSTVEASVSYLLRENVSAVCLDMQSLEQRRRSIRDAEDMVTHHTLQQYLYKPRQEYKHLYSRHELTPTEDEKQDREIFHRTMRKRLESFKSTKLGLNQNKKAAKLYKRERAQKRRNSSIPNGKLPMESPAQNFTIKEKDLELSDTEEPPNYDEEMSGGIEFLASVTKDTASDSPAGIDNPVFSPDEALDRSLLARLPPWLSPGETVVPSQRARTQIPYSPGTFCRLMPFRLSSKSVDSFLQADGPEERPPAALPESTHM
# Experiment: Recovery of intracellular pH (pHi) after acidification in LAP1 cells stably expressing NHE3 (BCECF fluorescence, FLIPR)
# Type: cell-based
# Settings: Activity range (inhibitory effect on NHE3), LAP1 cells stably expressing NHE3; pH recovery after acidification; range 1 is % inhibition at 10 μM
row,Structure (SMILES),IC50 [nM]
1,"CN(C)S(=O)(=O)c1ccc(O[C@H]2c3ccccc3C[C@@H]2N2CCCC2)c(Cl)c1 (racemic) [Example 447, 3-chloro-N,N-dimethyl-4-(rac-trans-(1,2)-2-pyrrolidin-1-ylindan-1-yloxy)benzenesulfonamide]",< 1000

# Same assay, conditions: LAP1 cells stably expressing NHE3; pH recovery after acidification; range 1 is % inhibition at 10 μM; read-out: Activity range (inhibitory effect on NHE3)
Structure (SMILES),IC50 [nM],inhibition at 10 µM [%]
"CC1(C)NC(=O)N(c2ccc(O[C@H]3c4cc(Cl)cc(Cl)c4C[C@@H]3N3CC[C@@H](O)C3)cc2)C1=O [Example 425, 3-{4-[(1S,2S)-4,6-dichloro-2-((R)-3-hydroxypyrrolidin-1-yl)indan-1-yloxy]phenyl}-5,5-dimethylimidazolidine-2,4-dione]",< 1000,
"CN1CCN([C@H]2Cc3c(Cl)cc(Cl)cc3[C@@H]2Oc2ccc(-n3cncn3)cc2)CC1 [Example 296, 1-[trans-(1S,2S)-4,6-dichloro-1-(4-[1,2,4]triazol-1-ylphenoxy)indan-2-yl]-4-methylpiperazine]",,20 to 50
"CN1CCN(c2ccc(O[C@H]3c4cc(Cl)cc(Cl)c4C[C@@H]3N3CC[C@@H](O)C3)cc2)C1=O [Example 332, 1-{4-[trans-(1S,2S)-4,6-dichloro-2-((R)-3-hydroxypyrrolidin-1-yl)indan-1-yloxy]phenyl}-3-methylimidazolidin-2-one]",1000 to 10000,
"NC(=O)c1cccc(O[C@@H]2c3ccccc3C[C@H]2N2CCC[C@@H](N)C2)c1 (racemic) [Example 411, 3-[rac-trans-(1,2)-2-((R)-3-aminopiperidin-1-yl)indan-1-yloxy]benzamide]",< 1000,
"Cc1nc2cc(O[C@@H]3c4ccccc4C[C@H]3N3CCC[C@@H](N)C3)ccc2s1 (racemic) [Example 47, (R)-1-[rac-trans-(1,2)-1-(2-methylbenzothiazol-5-yloxy)indan-2-yl]piperidin-3-ylamine]",< 1000,
"CC(=O)Nc1cccc(O[C@H]2c3cc(F)cc(Cl)c3C[C@@H]2N2CCC[C@@H](N)C2)c1 (racemic) [Example 677, N-{3-[rac-trans-(1,2)-2-((R)-3-aminopiperidin-1-yl)-4-chloro-6-fluoroindan-1-yloxy]phenyl}acetamide]",< 1000,
"O=C1COC(=O)N1c1ccc(O[C@H]2c3cc(Cl)cc(Cl)c3C[C@@H]2N2CC[C@@H](O)C2)c(Cl)c1 [Example 424, 3-{3-chloro-4-[(1S,2S)-4,6-dichloro-2-((R)-3-hydroxypyrrolidin-1-yl)indan-1-yloxy]phenyl}oxazolidine-2,4-dione]",< 1000,
"CCc1ccc(O[C@@H]2c3ccccc3C[C@H]2N2C[C@H]3CNC[C@H]3C2)c(C(C)(C)C)c1 (racemic) [Example 12, 2-[rac-trans-(1,2)-1-(2-tert-butyl-4-ethylphenoxy)indan-2-yl]octahydropyrrolo[3,4-c]pyrrole]",< 1000,
"O=c1ocnn1-c1ccc(O[C@H]2c3cc(Cl)cc(Cl)c3C[C@@H]2N2CC[C@@H](O)C2)cc1 [Example 735, 3-{4-[trans-(1S,2S)-4,6-Dichloro-2-((R)-3-hydroxy-pyrrolidin-1-yl)-indan-1-yloxy]-phenyl}-3H-[1,3,4]oxadiazol-2-one]",1000 to 10000,
"CC1(C)OC(=O)N(c2ccc(Cl)c(O[C@H]3c4cc(Cl)cc(F)c4C[C@@H]3N3CC[C@@H](O)C3)c2)C1=O [Example 437, 3-{4-chloro-3-[(1S,2S)-6-chloro-4-fluoro-2-((R)-3-hydroxypyrrolidin-1-yl)indan-1-yloxy]phenyl}-5,5-dimethyloxazolidine-2,4-dione]",1000 to 10000,
"Cc1noc(C)c1-c1ccc(O[C@H]2c3ccccc3C[C@@H]2N2CCCC2)cc1 [Example 407, 3,5-dimethyl-4-[4-(trans-(1S,2S)-2-pyrrolidin-1-ylindan-1-yloxy)phenyl]-isoxazole]",< 1000,
"CC(=O)NCc1cccc(O[C@H]2c3ccccc3C[C@@H]2N2CCCC2)c1 (racemic) [Example 640, N-[3-(rac-trans-(1,2)-2-pyrrolidin-1-ylindan-1-yloxy)benzyl]acetamide]",< 1000,
"CN(C1CCCNC1)[C@@H]1Cc2ccccc2[C@H]1Oc1ccc(S(N)(=O)=O)c(Cl)c1Cl (mixture of isomers) [Example 360, 2,3-dichloro-4-[rac-trans-(1,2)-2-(methylpiperidin-3-ylamino)indan-1-yloxy]benzenesulfonamide]",1000 to 10000,
"O=C1COC(=O)N1c1ccc(F)c(O[C@H]2c3cc(Cl)cc(Cl)c3C[C@@H]2N2CC[C@@H](O)C2)c1 [Example 418, 3-{3-[(1S,2S)-4,6-dichloro-2-((R)-3-hydroxypyrrolidin-1-yl)indan-1-yloxy]-4-fluorophenyl}oxazolidine-2,4-dione]",1000 to 10000,
"CS(=O)(=O)c1ccc(O[C@H]2c3cc(Cl)cc(Cl)c3C[C@@H]2N2CCC[C@@H](NCCC(F)(F)F)C2)cc1 [Example 223, {(R)-1-[trans-(1S,2S)-4,6-dichloro-1-(4-methanesulfonylphenoxy)indan-2-yl]piperidin-3-yl}-(3,3,3-trifluoropropyl)amine]",< 1000,
"N[C@@H]1CCCN([C@H]2CCc3ccccc3[C@@H]2Oc2ccnc(Cl)c2)C1 (racemic) [Example 40, (R)-1-[rac-trans-(1,2)-1-(2-chloropyridin-4-yloxy)-1,2,3,4-tetrahydronaphthalen-2-yl]piperidin-3-ylamine]",,20 to 50
"Cc1nnc(C)n1-c1ccc(O[C@H]2c3cc(Cl)ccc3C[C@@H]2N2CCCC2)c(Cl)c1 [Example 492, 4-[3-chloro-4-(trans-(1S,2S)-6-chloro-2-pyrrolidin-1-ylindan-1-yloxy)phenyl]-3,5-dimethyl-4H-[1,2,4]triazole]",< 1000,
"COc1cccc(CC#N)c1O[C@H]1c2ccccc2CC[C@@H]1N1CCOCC1 (racemic) [Example 213, [3-methoxy-2-(rac-trans-(1,2)-2-morpholin-4-yl-1,2,3,4-tetrahydronaphthalen-1-yloxy)phenyl]acetonitrile]",,20 to 50
"N[C@@H]1CCCN([C@H]2CCc3ccccc3[C@@H]2Oc2cccc3ncccc23)C1 (racemic) [Example 89, (R)-1-[rac-trans-(1,2)-1-(quinolin-5-yloxy)-1,2,3,4-tetrahydronaphthalen-2-yl]piperidin-3-ylamine]",1000 to 10000,
"CN1CCC2CN([C@H]3Cc4c(Cl)cc(Cl)cc4[C@@H]3Oc3ccc(S(C)(=O)=O)cc3)CC21 (single isomer, unassigned) [Example 582]",1000 to 10000,
"NC(=O)c1cc(Cl)ccc1O[C@H]1c2ccccc2CC[C@@H]1N1CCC[C@@H](N)C1 (racemic) [Example 365, 2-[rac-trans-(1,2)-2-((R)-3-aminopiperidin-1-yl)-1,2,3,4-tetrahydronaphthalen-1-yloxy]-5-chlorobenzamide]",1000 to 10000,
"Cc1nc2cc(O[C@H]3c4cc(Cl)cc(Cl)c4C[C@@H]3N3CC[C@@H](O)C3)ccc2s1 [Example 96, (R)-1-[trans-(1S,2S)-4,6-dichloro-1-(2-methylbenzothiazol-5-yloxy)indan-2-yl]pyrrolidin-3-ol]",,20 to 50
"COC(=O)c1nccn1-c1ccc(O[C@H]2c3cc(Cl)cc(Cl)c3C[C@@H]2N2CC[C@@H](O)C2)c(F)c1 [Example 740, 1-{4-[trans-(1S,2S)-4,6-Dichloro-2-((R)-3-hydroxy-pyrrolidin-1-yl)-indan-1-yloxy]-3-fluoro-phenyl}-1H-imidazole-2-carboxylic acid methyl ester]",< 1000,
